Data set [1] can be described thus: Weight gain of carriers on bubbling nitric oxide gas. It is filed as physicochemical. Conditions: NO gas bubbled 40 hr, 25 °C. As for the experimental part:
This example illustrates one technique for preparing a composition in accordance with one embodiment of the invention. An accurate amount of a carrier (HNC 167-62) (see below) was introduced into a system. The carrier weight used in these experiments was approximately 250 g and the vessel size was 500 ml. The vessel was equipped with a mechanical stirrer, gas inlet, and gas outlet and was previously purged with argon for about an hour. The temperature of the carrier was kept at about 25-30° C. NO gas regulated at 5 psi (1 psi is about 6,900 Pa) and was then introduced at a controlled rate of about 1 bubble/s with continuous stirring. […] After 6 hours, the weight of the carrier had increased by 0.15%, by 12 hours by 0.25%, and by 24 hours by 0.56%. These increases in weight were believed to be significant considering the relative small molecular weight of NO versus the carrier. […] The carrier also can solidify upon cooling if the carrier is initially a solid at lower temperature.
Each carrier was taken in a 500 mL three necked flask equipped with a mechanical stirrer, gas inlet and a gas outlet. The system was purged with argon for one hour at room temperature (25° C.). Then nitric oxide gas was bubbled into the system. Then, nitric oxide gas was bubbled through carrier for stipulated amount of time. The changes in weight and color were noted. […]

Data set [2] concerns micro-capillary blood flow to skin. Description: Laser Doppler study with closed Hilltop chamber on forearm, 10,000 ppm NO (Example 5). Conditions: applied to the skin at 1/10% in alcohol. Type of data set: in vivo, human. The text has this:
The formulation used in these studies contained nitric oxide dispersed in a lipid matrix. […] Nitric oxide is a very rapid acting molecule, and these studies used a system that employed laser Doppler with a covered chamber. The formulation was placed into the chamber and then attached to the skin by an adhesive layer on the covering. This provided a stable measuring device as determined by multiple normal evaluations of the capillary blood flow without treatment of nitric oxide.
A known positive control, methyl nicotinate, was applied to the skin at a concentration of 1/10% in alcohol. […] The vascular dynamics are such that when the blood vessels dilate physical parameters follow Bernoulli's law. […] The laser Doppler device accurately measured these parameters.
In these studies, the participants were healthy females aged 30 to 55 years. They were in good health as determined by the medical history and were not taking any prescription medications. All study participants read and signed the informed consent statement prior to any study procedures being performed. […]
A Moor Instruments DRT4 Laser Doppler Blood Flow Monitor (Devon, England) was used in these studies. The laser Doppler technique measured blood flow in the microcapillaries of the skin that are close to the skin surface and the blood flow in underlying arterioles and venules that help to regulate skin temperature. […]

Data set [3] concerns capillary circulation of the skin. Nature of the data set: Laser Doppler study of creams in five human subjects (Example 7). It is filed as in vivo. Particulars: positive control formulation containing 0.1% methyl nicotinate. The text has this:
This example illustrates delivery of nitric oxide formulations to five human subjects, using procedures and formulations similar to those discussed in Example 5. Each person served as their own control for the testing. A Moor Instruments Laser Doppler was used to determine circulation. […] The formulations used produce positive, almost immediate results when applied to the skin which, in these studies, was manifested by vasodilatation of the cutaneous vascular system. For each subject, the following creams were applied: a negative control formulation (containing no NO), 0.010 gram of a 10,000 ppm NO formulation, 0.020 gram of a 10,000 ppm NO formulation, and a positive control formulation containing 0.1% methyl nicotinate. The formulations were prepared using procedures similar to those discussed in Example 1.

On to `OCCCO` [1,3-Propanediol, 1,3-propanediol], for which, in data set [1], the “% Wt. gain” value worked out at 0.09% and the “Wt. Gain” value is 0.16 g.

Regarding `COC(=O)c1cccnc1` [methyl nicotinate], the “laser Doppler response of positive control” value in data set [2] is on record as “rapid response typical of the vasodilator”. Moreover, in data set [3], the vasodilatation result is recorded as “vasodilatation was observed”.
